The text below walks through data of patent US20220008359A1, “COMBINATION ANTI-CANCER PRODUCTS AND METHODS” (priority 2020, published 2022).

Marks after values point to notes of the source that are not given here.

In the experiment the test system is osimertinib-resistant (OR) H1650 cells. In words: In-cell immunostaining of protein expression and phosphorylation, osimertinib-resistant H1650 cells. Format: cell-based, human. Conditions: 6 h, VEH = 100. On the procedure:
Generation of erlotinib, afatinib and osimertinib-resistant cells. Cells were incubated in vitro with increasing concentrations of vehicle control or erlotinib or osimertinib until after ˜6 weeks the HCC827 and H1975 and H1650 cells grew with similar kinetics to sensitive cells in either erlotinib ([…]) or osimertinib ([…]), respectively. Afatinib-resistant cells were created in vivo by repeated high dosing until tumors disappeared and then regrew, as previously described.
Assessments of protein expression and protein phosphorylation. Multi-channel fluorescence HCS microscopes perform true in-cell western blotting. Three independent cultures derived from three thawed vials of cells of a tumor were sub-cultured into individual 96-well plates. Twenty-four hours after plating, the cells are transfected with a control plasmid or a control siRNA, or with an empty vector plasmid or with plasmids to express various proteins. After another 24 hours, the cells are ready for drug exposure(s). At various time-points after the initiation of drug exposure, cells are fixed in place using paraformaldehyde and using Triton X100 for permeabilization. Standard immunofluorescent blocking procedures are employed, followed by incubation of different wells with a variety of validated primary antibodies and subsequently validated fluorescent-tagged secondary antibodies are added to each well. The microscope determines the background fluorescence in the well and in parallel randomly determines the mean fluorescent intensity of 100 cells per well.

For the molecule `Nc1nc2[nH]cc(CCc3ccc(C(=O)N[C@@H](CCC(=O)O)C(=O)O)cc3)c2c(=O)[nH]1` [PEM, Pemetrexed], the BCL-XL expression is on record as 85*, the ERK2 expression amounted to 100, the FLIP-s expression is 93 and the MCL-1 expression is given as 86*.
